Tests used:
hERG ion channel = molecular target: T1, hERG ion channel (Homo sapiens, UniProt Q12809); experiment: hERG ion channel inhibition, manual patch clamp in HEK293 cells; type: cell-based; conditions: HEK293 cells stably expressing hERG, read-out: hERG(IC50, manupatch)
T1 construct: host or cells: HEK293
Description: This experiment used manual patch clamp electrophysiology to detect the inhibitory effect of compounds on hERG ion channels, and evaluated cardiac safety based on the single concentration inhibition rate or IC50 size of the compounds.
The cells used in this experiment are HEK293 cell lines transfected with hERG cDNA and stably expressing hERG channels (#60187, provided by BPS, P3-P23 generations are used for experimental research). Cells were cultured in a medium containing the following components: MEM medium, 10% (v/v) inactivated fetal bovine serum, 1 mM sodium pyruvate, […] geneticin, 0.1 mM non-essential amino acids, and 100 U penicillin-streptomycin. HEK293 hERG cells were grown in culture flasks containing the above culture medium and cultured in an incubator at 37° C. and 5% CO2. […]
The electrophysiological experiments were performed by a manual patch clamp system (HEKAEPC-10 signal amplifier and digital conversion system, purchased from HEKA Electronics, Germany) to record the whole-cell current. […] After the hERG current recorded in the above steps reaches stability under continuous perfusion of extracellular fluid in the recording tank, different concentrations of the test compound can be perfused until the inhibitory effect of the drug on the hERG current reaches a stable state. […]

CYP2C19 = molecular target: T2, CYP2C19 (Homo sapiens, UniProt P33261); experiment: CYP450 enzyme inhibition in human liver microsomes, CYP2C19; type: in vitro ADME; conditions: substrate Mephenytoin, read-out: Inhibitory activity IC50 (μM) CYP2C19
T2 construct: (CYP2C19 uses 0.2 mg/mL liver microsome); tissue BioIVT IHG; host or cells: human liver microsomes
Description: This experiment incubates the compound, liver microsomes and different CYP subtype enzyme substrates in a 37° C. water bath to measure the amount of substrate metabolites produced and evaluate the inhibitory effect of the compound of the present disclosure on CYP enzymes based on the IC50 value.
i. The compound was diluted to 0, 0.02 mM, 0.06 mM, 0.2 mM, 0.6 mM, 2 mM and 6 mM concentrations with DMSO (Aladdin, catalog number: D103273-500 ml).
ii. The enzyme substrate solutions of each CYP subtype were prepared by phosphate buffer (sigma: V900050-500G).
iii. Sample incubation. […] After centrifugation at 4000 rpm and 4° C. for 40 min, the supernatant was diluted with pure water according to the response of the substrate metabolites and then detected by UPLC-MS/MS (Sciex, Q-Trap 4500). […]
The inhibitory effect of the compound on each P450 enzyme in human liver microsomes was calculated as the percentage of reduced metabolite formation compared with the non-inhibitory control (i.e., blank DMSO). The IC50 value for each P450 enzyme in human liver microsomes was calculated using the logarithm of the remaining activity and the inhibitor concentration using Graphpad Prism software. […]

T2 sequence (P33261 whole entry): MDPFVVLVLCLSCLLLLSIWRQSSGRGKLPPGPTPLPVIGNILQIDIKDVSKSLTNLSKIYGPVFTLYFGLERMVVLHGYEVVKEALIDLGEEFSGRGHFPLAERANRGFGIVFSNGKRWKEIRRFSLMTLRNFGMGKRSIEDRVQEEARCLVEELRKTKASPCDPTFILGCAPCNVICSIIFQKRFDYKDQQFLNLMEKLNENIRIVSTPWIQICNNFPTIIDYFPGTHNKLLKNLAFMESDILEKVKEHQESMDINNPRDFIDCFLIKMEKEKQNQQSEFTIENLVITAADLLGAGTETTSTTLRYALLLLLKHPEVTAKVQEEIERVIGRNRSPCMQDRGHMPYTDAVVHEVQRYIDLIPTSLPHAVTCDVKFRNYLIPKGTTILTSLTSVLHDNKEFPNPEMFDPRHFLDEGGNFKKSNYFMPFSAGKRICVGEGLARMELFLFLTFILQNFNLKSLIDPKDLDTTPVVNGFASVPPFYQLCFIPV
T1 sequence (Q12809 whole entry): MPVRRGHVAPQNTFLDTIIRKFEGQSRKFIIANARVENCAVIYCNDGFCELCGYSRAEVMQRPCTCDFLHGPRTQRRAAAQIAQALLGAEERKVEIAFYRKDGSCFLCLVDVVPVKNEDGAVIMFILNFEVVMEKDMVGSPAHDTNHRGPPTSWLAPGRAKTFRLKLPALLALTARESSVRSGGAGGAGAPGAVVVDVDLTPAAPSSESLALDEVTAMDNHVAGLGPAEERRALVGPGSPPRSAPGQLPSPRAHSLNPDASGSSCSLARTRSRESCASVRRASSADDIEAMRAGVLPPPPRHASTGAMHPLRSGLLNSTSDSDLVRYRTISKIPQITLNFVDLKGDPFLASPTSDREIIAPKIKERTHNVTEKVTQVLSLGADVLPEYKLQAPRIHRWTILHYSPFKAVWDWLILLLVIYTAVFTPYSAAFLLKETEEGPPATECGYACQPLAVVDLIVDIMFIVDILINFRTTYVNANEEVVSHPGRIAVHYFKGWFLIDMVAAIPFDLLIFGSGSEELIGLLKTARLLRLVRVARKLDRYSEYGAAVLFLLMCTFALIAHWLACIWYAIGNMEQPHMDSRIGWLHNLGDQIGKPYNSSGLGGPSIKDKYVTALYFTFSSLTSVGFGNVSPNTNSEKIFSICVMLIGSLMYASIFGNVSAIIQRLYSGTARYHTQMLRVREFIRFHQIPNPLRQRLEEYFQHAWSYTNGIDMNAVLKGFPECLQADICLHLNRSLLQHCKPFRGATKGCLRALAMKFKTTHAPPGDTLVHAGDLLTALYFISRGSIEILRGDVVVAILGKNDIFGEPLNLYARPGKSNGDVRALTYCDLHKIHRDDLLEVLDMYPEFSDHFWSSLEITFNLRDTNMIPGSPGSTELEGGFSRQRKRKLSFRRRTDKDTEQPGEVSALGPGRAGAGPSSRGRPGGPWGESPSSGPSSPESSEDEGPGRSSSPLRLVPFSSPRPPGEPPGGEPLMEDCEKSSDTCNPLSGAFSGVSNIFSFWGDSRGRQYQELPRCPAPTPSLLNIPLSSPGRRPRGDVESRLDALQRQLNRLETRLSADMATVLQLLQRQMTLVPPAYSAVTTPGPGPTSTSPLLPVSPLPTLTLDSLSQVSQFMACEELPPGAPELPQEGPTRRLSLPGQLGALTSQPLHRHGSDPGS

IC50 (CYP2C19): > 30 µM
SMILES: CC(=O)N1CCOC[C@H]1CNc1nc2nc(-c3c(C)cc(C(F)(F)F)cc3O)ccc2o1 [Compound 111]
IC50 (hERG ion channel): > 30 µM

Source: patent publication US20260234150A1, “COMPOUND FOR INHIBITING NLRP3, PREPARATION METHOD, AND USE” (DOVETREE MEDICINES UNUS, INC., priority 2023, published 2026)
